# Data reported in the supplement of paper PMC11208160.
# Test: recombinant barcode read abundance after kanamycin selection (control-corrected) (log10(CPM+1)); higher = more efficient recombination; sequences stand for … in AGTGCAGAGAAAATCGGCCAGTTTTCTCTGCCTGCAGTCCGCATGCCGT…AGATTTATGCAGCGGACTGCCTTTCTCCCAAAGTGATAAACCGGACAGTATCATGGACCGGTTTTCCCGGTAATCCGTATTTGCAAGGTTGGTTTCACT; site = the 11-nt target
# Method in brief: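 A vector carrying a T7-inducible recombinase and the last 73 bp of the bridge RNA received, by Gibson cloning, oligos encoding a promoter, target, barcode and the first 104 bridge RNA bases under J23119. The pooled constructs entered E. coli together with a donor plasmid by electroporation. Selection used chloramphenicol/ampicillin/kanamycin with 0.1 mM IPTG, with chloramphenicol/ampicillin LB agar as the control, each in two replicates. Recombination efficiency is the averaged, control-corrected counts-per-million of barcodes at recombinant junctions, reported as log10(CPM+1).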
# 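Also: IS621 recombinase and bridge RNA in Escherichia coli cells.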
sequence,measurement,value
TAGAAGACTTGGGTTCTAACCTGTTGCAT (site TAGAAGACTAT),recombinant barcode read abundance (log10),1.01
TAGAAGACTTGGGTTCTAACCTGTTGCAT (site TATAAGACTGT),recombinant barcode read abundance (log10),0.0979
TAGAAGCCTTGGGTTCTAACCTGTTGCCT (site AAGAAGCCTAG),recombinant barcode read abundance (log10),0.248
TAGAAGCCTTGGGTTCTAACCTGTTGCCT (site CAGAAGCCTAG),recombinant barcode read abundance (log10),0.43
TAGAAGCCTTGGGTTCTAACCTGTTGCCT (site GAGAAGCCTAG),recombinant barcode read abundance (log10),0.06
TAGAAGCCTTGGGTTCTAACCTGTTGCCT (site TAGAAGCCTAG),recombinant barcode read abundance (log10),1.11
TAGAAGGCTTGGGTTCTAACCTGTTGCCT (site TAGAAGGCTAA),recombinant barcode read abundance (log10),0.139
TAGAAGGCTTGGGTTCTAACCTGTTGCCT (site TAGAAGGCTAC),recombinant barcode read abundance (log10),0.1
TAGAAGGCTTGGGTTCTAACCTGTTGCCT (site TAGAAGGCTAG),recombinant barcode read abundance (log10),0.216
TAGAAGGCTTGGGTTCTAACCTGTTGCCT (site TAGAAGGCTAT),recombinant barcode read abundance (log10),0.325
TAGAAGGCTTGGGTTCTAACCTGTTGCTT (site TAGAAGGCTAA),recombinant barcode read abundance (log10),0.805
TAGAAGGCTTGGGTTCTAACCTGTTGCTT (site TAGAAGGCTAC),recombinant barcode read abundance (log10),0.0392
TAGAAGGCTTGGGTTCTAACCTGTTGCTT (site TAGAAGGCTAG),recombinant barcode read abundance (log10),0.0656
TAGAAGGCTTGGGTTCTAACCTGTTGCTT (site TAGAAGGCTAT),recombinant barcode read abundance (log10),0.28
TAGAATCCTTGGGTTCTAACCTGTTGCAA (site TAGAATCCTAT),recombinant barcode read abundance (log10),0.15
TAGAATCCTTGGGTTCTAACCTGTTGCAA (site TAGAATCCTCT),recombinant barcode read abundance (log10),0.123
TAGAATCCTTGGGTTCTAACCTGTTGCAA (site TAGAATCCTGT),recombinant barcode read abundance (log10),0.116
TAGAATCCTTGGGTTCTAACCTGTTGCAA (site TAGAATCCTTT),recombinant barcode read abundance (log10),0.147
TAGACGGCTTGGGTTCTAACCTGTTGCAT (site GGATACACTCG),recombinant barcode read abundance (log10),0.191
TAGACGGCTTGGGTTCTAACCTGTTGCAT (site TAGACGGCTAT),recombinant barcode read abundance (log10),0.463
TAGAGAGCTTGGGTTCTAACCTGTTGCAG (site TAGAGAGCTCT),recombinant barcode read abundance (log10),1.94
TAGAGAGCTTGGGTTCTAACCTGTTGCAG (site TAGGGAGCTAT),recombinant barcode read abundance (log10),0.265
TAGAGCCCTTGGGTTCTAACCTGTTGCGG (site TAGAGCCCTCC),recombinant barcode read abundance (log10),0.953
TAGAGCCCTTGGGTTCTAACCTGTTGCGG (site TCGAGGCCTCC),recombinant barcode read abundance (log10),0.0902
TAGATCCCTTGGGTTCTAACCTGTTGCTT (site TAGAACCCTAA),recombinant barcode read abundance (log10),0.245
TAGATCCCTTGGGTTCTAACCTGTTGCTT (site TAGATCCCTAA),recombinant barcode read abundance (log10),0.528
TAGCACCCTTGGGTTCTAACCTGTTGCCG (site TAGCACCCTAG),recombinant barcode read abundance (log10),0.287
TAGCACCCTTGGGTTCTAACCTGTTGCCG (site TAGCACCCTCG),recombinant barcode read abundance (log10),1.19
TAGCACCCTTGGGTTCTAACCTGTTGCCG (site TAGCACCCTGG),recombinant barcode read abundance (log10),0.239
TAGCACCCTTGGGTTCTAACCTGTTGCCG (site TAGCACCCTTG),recombinant barcode read abundance (log10),0.356
TAGCAGTCTTGGGTTCTAACCTGTTGCGC (site CGCGCCACTAG),recombinant barcode read abundance (log10),0.251
TAGCAGTCTTGGGTTCTAACCTGTTGCGC (site TAGCAGTCTGC),recombinant barcode read abundance (log10),2.05
TAGCATGCTTGGGTTCTAACCTGTTGCAA (site TAGCATGCTAT),recombinant barcode read abundance (log10),0.382
TAGCATGCTTGGGTTCTAACCTGTTGCAA (site TAGCATGCTCT),recombinant barcode read abundance (log10),0.597
TAGCATGCTTGGGTTCTAACCTGTTGCAA (site TAGCATGCTGT),recombinant barcode read abundance (log10),0.115
TAGCATGCTTGGGTTCTAACCTGTTGCAA (site TAGCATGCTTT),recombinant barcode read abundance (log10),0.324
